# Data from patent US9938269B2, “Inhibitor compounds of phosphodiesterase type 10A” (ABBVIE INC., priority 2011, dated 2018).
# Where a name gives a salt, the structure may show the parent alone.
# Tests used:
# [1] = Determination of the microsomal half-life, human liver microsomes; conditions: human, liver microsomes, pH 7.4
# [2] = molecular target: T1, PDE10A (human) (Homo sapiens, UniProt Q9Y233); assay: Measurement of PDE activity (HTRF cAMP kit), human PDE10A; assay type: biochemical; conditions: PDE enzymatic reaction, substrate 20 nM for PDE10, 60 minutes at 29 C
# T1 construct: purchased BPS Bioscience
# T1 sequence (Q9Y233 whole entry): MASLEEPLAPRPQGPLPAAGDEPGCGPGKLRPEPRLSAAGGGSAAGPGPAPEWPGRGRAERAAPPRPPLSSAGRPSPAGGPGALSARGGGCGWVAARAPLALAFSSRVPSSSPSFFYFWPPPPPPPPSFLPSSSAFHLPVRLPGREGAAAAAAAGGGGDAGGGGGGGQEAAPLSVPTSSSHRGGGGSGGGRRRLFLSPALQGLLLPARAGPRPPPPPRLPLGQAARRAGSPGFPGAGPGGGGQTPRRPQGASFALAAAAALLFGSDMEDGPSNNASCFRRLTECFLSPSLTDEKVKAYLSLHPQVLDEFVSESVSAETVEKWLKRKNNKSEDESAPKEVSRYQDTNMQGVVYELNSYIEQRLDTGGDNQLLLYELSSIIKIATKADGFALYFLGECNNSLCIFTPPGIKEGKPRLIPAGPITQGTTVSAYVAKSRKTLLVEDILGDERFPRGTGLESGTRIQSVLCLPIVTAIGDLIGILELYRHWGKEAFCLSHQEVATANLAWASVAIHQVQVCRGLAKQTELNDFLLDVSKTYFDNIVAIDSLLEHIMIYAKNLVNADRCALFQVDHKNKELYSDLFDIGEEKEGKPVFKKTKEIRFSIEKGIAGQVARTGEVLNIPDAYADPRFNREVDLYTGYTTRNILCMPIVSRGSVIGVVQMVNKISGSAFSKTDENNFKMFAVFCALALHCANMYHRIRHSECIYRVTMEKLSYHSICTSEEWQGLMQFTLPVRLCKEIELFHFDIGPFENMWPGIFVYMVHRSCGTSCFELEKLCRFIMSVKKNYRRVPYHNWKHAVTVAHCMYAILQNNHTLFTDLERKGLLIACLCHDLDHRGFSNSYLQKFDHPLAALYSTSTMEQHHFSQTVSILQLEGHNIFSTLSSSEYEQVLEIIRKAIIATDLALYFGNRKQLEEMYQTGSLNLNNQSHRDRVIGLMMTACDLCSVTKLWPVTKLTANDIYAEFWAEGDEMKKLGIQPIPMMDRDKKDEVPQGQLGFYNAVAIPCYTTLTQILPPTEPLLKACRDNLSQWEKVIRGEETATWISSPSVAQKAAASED
# Method in brief: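 Recombinant human PDE10A (10–250 pM range across PDEs) with 20 nM cAMP substrate in 20 mM Tris-HCl pH 7.5, 10 mM MgCl2, 0.1% BSA, compound pre-mixed with enzyme. Ran 60 min at 29 °C. Remaining cAMP read by HTRF, converted to % of uninhibited activity, and IC50 fitted.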
# [3] = Determination of the microsomal half-life, rat liver microsomes; conditions: for microsomal CLint at 0.5 μM: rat, liver microsomes, pH 7.4
# Experimental: The test substances were incubated in a concentration of 0.5 μM as follows:
# 0.5 μM test substance are preincubated together with liver microsomes from different species (from rat, human or other species) (0.25 mg of microsomal protein/10 in 0.05 M potassium phosphate buffer of pH 7.4 in microtiter plates at 37° C. for 5 min. The reaction is started by adding NADPH (1 mg/mL). After 0, 5, 10, 15, 20 and 30 min., 50 μl aliquots are removed, and the reaction is immediately stopped and cooled with the same volume of acetonitrile. The samples are frozen until analyzed. The remaining concentration of undegraded test substance is determined by MSMS. The half-life (T½) is determined from the gradient of the signal of test substance/unit time plot, it being possible to calculate the half-life of the test substance, assuming first order kinetics, from the decrease in the concentration of the compound with time. The microsomal clearance (mCl) is calculated from mCl=ln 2/T½/(content of microsomal protein in mg/ml)×1000 [ml/min/mg]
SMILES,microsomal CLint at 0.5 μM [1] [µL/min/mg],IC50 [2] [µM],microsomal CLint at 0.5 μM [3] [µL/min/mg],also measured
"O=C1c2c(cccc2N2CCN(c3cccnc3)CC2)CN1CCc1ccc2ccccc2n1 [Example 159, 7-(4-Pyridin-3-yl-piperazin-1-yl)-2-(2-quinolin-2-yl-ethyl)-2,3-dihydro-isoindol-1-one trifluoroacetate]",> 220,–,100 to 220,–
"CN1CCN(Cc2cccc3c2C(=O)N(CCc2ccc4ccccc4n2)C3)CC1 [Example 177, 7-(4-Methyl-piperazin-1-ylmethyl)-2-(2-quinolin-2-yl-ethyl)-2,3-dihydro-isoindol-1-one]",< 100,–,< 100,–
"CC1(O)CCC(Nc2ccc(-c3cccc4c3C(=O)N(CCc3ccc5ccccc5n3)C4)cc2Cl)CC1 (stereo not drawn) [Example 155, 7-[3-Chloro-4-(4-hydroxy-4-methyl-cyclohexylamino)-phenyl]-2-(2-quinolin-2-yl-ethyl)-2,3-dihydro-isoindol-1-one hydrochloride]",> 220,–,100 to 220,–
"CN1CCN(c2cccc3c2C(=O)N(CCc2nc4ccccn4n2)C3)CC1 [Example 233, 7-(4-Methyl-piperazin-1-yl)-2-(2-[1,2,4]triazolo[1,5-a]pyridin-2-yl-ethyl)-2,3-dihydro-isoindol-1-one]",< 100,–,< 100,–
"CN1CCN(c2ccnc3c2C(=O)N(CCc2cn4ccccc4n2)C3)CC1 [Example 273, 6-(2-Imidazo[1,2-a]pyridin-2-yl-ethyl)-4-(4-methyl-piperazin-1-yl)-6,7-dihydro-pyrrolo[3,4-b]pyridin-5-one]",< 100,–,< 100,–
"CN1CC2CN(c3cccc4c3C(=O)N(CCc3ccc5ccccc5n3)C4)CC2C1 (stereo not drawn) [Example 154, 7-(5-Methyl-hexahydro-pyrrolo[3,4-c]pyrrol-2-yl)-2-(2-quinolin-2-yl-ethyl)-2,3-dihydro-isoindol-1-one]",< 100,–,–,"Rat mCl (mikrosomal clearance) ([3]; rat liver microsomes, 0.5 μM test substance, 0.25 mg microsomal protein, pH 7.4, 37° C., NADPH): −∘"
"O=C1c2c(N3CCOCC3)ccnc2CN1CCc1cc2ccccc2o1 [compound 397, 6-[2-(Benzofuran-2-yl)ethyl]-4-morpholino-7H-pyrrolo[3,4-b]pyridin-5-one]",–,–,100 to 220,–
"CCN1CCN(C2CCN(c3cccc4c3C(=O)N(CCc3ccc5ccccc5n3)C4)CC2)CC1 [Example 157, 7-[4-(4-Ethyl-piperazin-1-yl)-piperidin-1-yl]-2-(2-quinolin-2-yl-ethyl)-2,3-dihydro-isoindol-1-one trifluoroacetate]",> 220,–,< 100,–
"Cn1nccc1-c1ccnc2c1C(=O)N(CCc1nc3ccccn3n1)C2 [Example 213, 4-(2-Methyl-2H-pyrazol-3-yl)-6-(2-[1,2,4]triazolo[1,5-a]pyridin-2-yl-ethyl)-6,7-dihydro-pyrrolo[3,4-b]pyridin-5-one trifluoroacetate]",< 100,–,< 100,–
"COc1ccc(-c2ccnc3c2CN(CCc2ccc4ccccc4n2)C3=O)cc1 [compound 458, 4-(4-Methoxy-phenyl)-6-(2-quinolin-2-yl-ethyl)-5,6-dihydro-pyrrolo[3,4-b]pyridin-7-one trifluoroacetate]",–,< 0.1,–,–
"COc1cncc(-c2cccc3c2CN(CCc2ccc4ccccc4n2)C3=O)n1 [Example 356, 4-(6-Methoxy-pyrazin-2-yl)-2-(2-quinolin-2-yl-ethyl)-2,3-dihydro-isoindol-1-one]",–,0.2 to 0.5,–,–
"O=C1c2c(-c3ccoc3)ccnc2CN1CCc1ccc2ccccc2n1 [Example 331, 4-Furan-3-yl-6-(2-quinolin-2-yl-ethyl)-6,7-dihydro-pyrrolo[3,4-b]pyridin-5-one]",–,< 0.1,–,–
"COc1ccc(-c2cccc3c2CN(CCc2ccc4ccccc4n2)C3=O)cc1 [Example 203, 4-(4-Methoxy-phenyl)-2-(2-quinolin-2-yl-ethyl)-2,3-dihydro-isoindol-1-one trifluoroacetate]",–,< 0.1,–,–
"O=C1c2c(-c3ccsc3)ccnc2CN1CCc1cn2ccccc2n1 [compound 523, 6-(2-Imidazo[1,2-a]pyridin-2-ylethyl)-4-(3-thienyl)-7H-pyrrolo[3,4-b]pyridin-5-one]",–,< 0.1,–,–
"Cc1noc(C)c1-c1cccc2c1CN(CCc1ccc3ccccc3n1)C2=O [Example 349, 4-(3,5-Dimethyl-isoxazol-4-yl)-2-(2-quinolin-2-yl-ethyl)-2,3-dihydro-isoindol-1-one]",–,0.2 to 0.5,–,–
"Cc1ccc2ccc(CCN3Cc4nccc(N5CCOCC5)c4C3=O)nc2c1 [compound 392, 6-[2-(7-Methyl-2-quinolyl)ethyl]-4-morpholino-7H-pyrrolo[3,4-b]pyridin-5-one]",–,< 0.1,–,–
"O=C1c2c(-c3cncnc3)ccc(F)c2CN1CCc1ccc2ccccc2n1 [compound 443, 4-Fluoro-7-pyrimidin-5-yl-2-[2-(2-quinolyl)ethyl]isoindolin-1-one trifluoroacetate]",–,< 0.1,–,–
"CCn1cc(-c2ccnc3c2C(=O)N(CCc2ccc4ccccc4n2)C3)cn1 [Example 333, 4-(1-Ethyl-1H-pyrazol-4-yl)-6-(2-quinolin-2-yl-ethyl)-6,7-dihydro-pyrrolo[3,4-b]pyridin-5-one]",–,0.1 to 0.2,–,–
"O=C1c2c(OCCF)ccc(-c3ccncc3)c2C(=O)N1CCc1ccc2ccccc2n1 [compound 532, 4-(2-Fluoro-ethoxy)-7-pyridin-4-yl-2-(2-quinolin-2-yl-ethyl)-isoindole-1,3-dione]",–,< 0.1,–,–

# Now from value to compound, other results behind:
microsomal CLint at 0.5 μM [1] [µL/min/mg],IC50 [2] [µM],microsomal CLint at 0.5 μM [3] [µL/min/mg],SMILES,also measured
100 to 220,0.2 to 0.5,–,"O=C1c2c(cccc2-c2ccncc2)CN1CCc1cccc(-c2ncccn2)c1 [Example 121, 7-(Pyridin-4-yl)-2-(3-(pyrimidin-2-yl)phenethyl)isoindolin-1-one]",–
< 100,–,< 100,"O=C1c2c(-c3cccnc3)ccnc2CN1CCc1cn2ccccc2n1 [Example 358, 6-(2-Imidazo[1,2-a]pyridin-2-yl-ethyl)-4-pyridin-3-yl-6,7-dihydro-pyrrolo[3,4-b]pyridin-5-one]",–
100 to 220,–,100 to 220,"COc1ccc(-c2cccc3c2C(=O)N(CCc2cn4ccccc4n2)C3)cc1 [Example 237, 2-(2-Imidazo[1,2-a]pyridin-2-yl-ethyl)-7-(4-methoxy-phenyl)-2,3-dihydro-isoindol-1-one]",–
> 220,–,100 to 220,"O=C1c2c(cccc2OCc2ccncc2)CN1CCc1ccc2ccccc2n1 [Example 128, 7-(Pyridin-4-ylmethoxy)-2-(2-quinolin-2-yl-ethyl)-2,3-dihydro-isoindol-1-one]",–
–,0.2 to 0.5,–,"O=C1c2c(cccc2NCc2cccnc2)CN1CCc1ccc2ccccc2n1 [Example 126, 7-[(Pyridin-3-ylmethyl)-amino]-2-(2-quinolin-2-yl-ethyl)-2,3-dihydro-isoindol-1-one]",–
–,< 0.1,–,"O=C1c2c(cccc2-c2ccc3cn[nH]c3c2)CN1CCc1cn2ccccc2n1 [Example 243, 2-(2-Imidazo[1,2-a]pyridin-2-yl-ethyl)-7-(1H-indazol-6-yl)-2,3-dihydro-isoindol-1-one]",–
–,< 0.1,–,"O=C1c2c(ccnc2-c2ccncc2)CN1CCc1ccc2ccccc2n1 [Example 1, 4-Pyridin-4-yl-2-(2-quinolin-2-yl-ethyl)-1,2-dihydro-pyrrolo[3,4-c]pyridin-3-one; compound with trifluoro-acetic acid]",–
–,< 0.1,–,"O=C1c2c(cccc2-c2cncc(F)c2)CN1CCc1ccc2ccccc2n1 [Example 77, 7-(5-Fluoro-pyridin-3-yl)-2-(2-quinolin-2-yl-ethyl)-2,3-dihydro-isoindol-1-one]",–
–,0.2 to 0.5,–,"O=C1c2c(cccc2-c2ccc(F)cn2)CN1CCc1ccc2ccccc2n1 [Example 88, 7-(5-Fluoro-pyridin-2-yl)-2-(2-quinolin-2-yl-ethyl)-2,3-dihydro-isoindol-1-one]",–
–,< 0.1,–,"O=C1c2c(cccc2-c2ccncc2)CN1CCc1nc2ccccc2n1CCN1CCOCC1 [Example 292, 2-{2-[1-(2-Morpholin-4-yl-ethyl)-1H-benzoimidazol-2-yl]-ethyl}-7-pyridin-4-yl-2,3-dihydro-isoindol-1-one trifluoroacetate]",–
–,< 0.1,–,"O=C1c2c(-c3ccncc3)ccc(OC(F)F)c2CN1CCc1ccc2ccccc2n1 [Example 268, 4-Difluoromethoxy-7-pyridin-4-yl-2-(2-quinolin-2-yl-ethyl)-2,3-dihydro-isoindol-1-one]",–
–,0.1 to 0.2,–,"CC1(C)c2cccc(-c3ccncc3)c2C(=O)N1CCc1ccc2ccccc2n1 [Example 6, 3,3-Dimethyl-7-pyridin-4-yl-2-(2-quinolin-2-yl-ethyl)-2,3-dihydro-isoindol-1-one]",–
–,< 0.1,–,"O=C1c2cccc(OCc3ccncc3)c2C(=O)N1CCc1ccc2ccccc2n1 [Example 247, 4-(Pyridin-4-ylmethoxy)-2-(2-quinolin-2-yl-ethyl)-isoindole-1,3-dione]",–
–,0.2 to 0.5,–,"O=C1c2c(cccc2-c2ccc3[nH]ncc3c2)CN1CCc1ccc2ccccc2n1 [Example 93, 7-(1H-Indazol-5-yl)-2-(2-quinolin-2-yl-ethyl)-2,3-dihydro-isoindol-1-one]",–
–,0.1 to 0.2,–,"O=C1c2c(cccc2-c2ccc3c(c2)OCO3)CN1CCc1ccc2ccccc2n1 [Example 34, 7-Benzo[1,3]dioxol-5-yl-2-(2-quinolin-2-yl-ethyl)-2,3-dihydro-isoindol-1-one]",–
–,0.2 to 0.5,–,"Cn1cncc1-c1cccc2c1C(=O)N(CCc1ccc3ccccc3n1)C2 [Example 94, 7-(3-Methyl-3H-imidazol-4-yl)-2-(2-quinolin-2-yl-ethyl)-2,3-dihydro-isoindol-1-one]",–
–,< 0.1,–,"O=C1c2c(-c3ccsc3)ccnc2CN1CCc1ccc2ccccc2n1 [Example 330, 6-(2-Quinolin-2-yl-ethyl)-4-thiophen-3-yl-6,7-dihydro-pyrrolo[3,4-b]pyridin-5-one]",–
